± gives the standard deviation of the averaged measurements.
System: KHOS-240S
Experiment: relative viability vs DMSO control (72 h) (fraction); higher = more viable cells
In short: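 Sarcoma cell lines in 384-well plates, seeded to reach 80–90% confluence, were given compound after 24 h and kept 72 h at 37 °C, 5% CO2, with 0.1% DMSO vehicle and a 5 µM positive control. Relative viability came from ATPLite as percent growth, averaged over up to triplicate wells. On the rescaled values, 1 equals full and 0 equals none.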

| Compound | relative viability (0.00017 µM) | relative viability (0.00051 µM) | relative viability (0.00152 µM) | relative viability (0.00457 µM) | relative viability (0.01372 µM) | relative viability (0.04115 µM) | relative viability (0.1235 µM) | relative viability (0.3704 µM) | relative viability (1.111 µM) | relative viability (3.333 µM) | relative viability (10 µM) | relative viability (2 pM) | relative viability (5 pM) | relative viability (15 pM) | relative viability (50 pM) | relative viability (0.00014 µM) | relative viability (0.00041 µM) | relative viability (0.0012 µM) | relative viability (0.0037 µM) | relative viability (0.011 µM) | relative viability (200 fM) | relative viability (600 fM) |
| --- | --- | --- | --- | --- | --- | --- | --- | --- | --- | --- | --- | --- | --- | --- | --- | --- | --- | --- | --- | --- | --- | --- |
| N#CC[C@H](C1CCCC1)n1cc(-c2ncnc3[nH]ccc23)cn1 [Ruxolitinib] | 0.984 ± 0.0066 | 0.984 ± 0.012 | 0.97 ± 0.043 | 0.975 ± 0.025 | 0.95 ± 0.035 | 0.966 ± 0.028 | 0.943 ± 0.037 | 0.912 ± 0.037 | 0.88 ± 0.024 | 0.773 ± 0.037 | 0.583 ± 0.015 | – | – | – | – | – | – | – | – | – | – | – |
| Cc1cc(C)c(/C=C2\C(=O)Nc3ccccc32)[nH]1 [Semaxanib] | 1.01 ± 0.02 | 1.01 ± 0.032 | 1.01 ± 0.025 | 1.02 ± 0.034 | 0.99 ± 0.01 | 0.966 ± 0.013 | 0.951 ± 0.022 | 0.959 ± 0.024 | 0.844 ± 0.025 | 0.812 ± 0.023 | 0.803 ± 0.024 | – | – | – | – | – | – | – | – | – | – | – |
| Cc1nc(-c2cn3c(n2)-c2ccc(-c4cnn(C(C)(C)C(N)=O)c4)cc2OCC3)n(C(C)C)n1 [Taselisib] | 1.03 ± 0.013 | 1.03 ± 0.024 | 1.01 ± 0.031 | 1.02 ± 0.049 | 0.952 ± 0.029 | 0.911 ± 0.012 | 0.856 ± 0.018 | 0.793 ± 0.041 | 0.725 ± 0.037 | 0.684 ± 0.049 | 0.566 ± 0.017 | – | – | – | – | – | – | – | – | – | – | – |
| CN1CCC(COc2cnc(-c3cccc(Cn4nc(-c5cccc(C#N)c5)ccc4=O)c3)nc2)CC1 [Tepotinib] | 1.09 ± 0.051 | 1.09 ± 0.014 | 1.1 ± 0.043 | 1.09 ± 0.035 | 1.04 ± 0.019 | 1.08 ± 0.045 | 1.04 ± 0.045 | 1.02 ± 0.031 | 1 ± 0.017 | 0.94 ± 0.095 | 0.593 ± 0.022 | – | – | – | – | – | – | – | – | – | – | – |
| COc1cc2nccc(Oc3ccc(NC(=O)Nc4cc(C)on4)c(Cl)c3)c2cc1OC [Tivozanib] | 1.07 ± 0.061 | 1.07 ± 0.061 | 1.09 ± 0.071 | 1.09 ± 0.059 | 1.08 ± 0.025 | 1.07 ± 0.041 | 1.06 ± 0.018 | 1.045 ± 0.0038 | 1.02 ± 0.042 | 0.908 ± 0.027 | 0.561 ± 0.02 | – | – | – | – | – | – | – | – | – | – | – |
| C[C@@H]1CCN(C(=O)CC#N)C[C@@H]1N(C)c1ncnc2[nH]ccc12 [Tofacitinib] | 1.08 ± 0.068 | 1.05 ± 0.038 | 1.08 ± 0.062 | 1.09 ± 0.069 | 1.05 ± 0.031 | 1.05 ± 0.034 | 1.06 ± 0.08 | 1.03 ± 0.043 | 1.01 ± 0.076 | 0.977 ± 0.021 | 0.853 ± 0.075 | – | – | – | – | – | – | – | – | – | – | – |
| COc1cc2c(cc1O)CCN[C@]21CS[C@@H]2c3c(OC(C)=O)c(C)c4c(c3[C@H](COC1=O)N1[C@@H]2[C@H]2c3c(cc(C)c(OC)c3O)C[C@@H]([C@@H]1O)N2C)OCO4 [Trabectedin] | – | – | – | – | – | – | – | – | – | – | – | 1.07 ± 0.015 | 1.082 ± 0.0023 | 1.07 ± 0.042 | 0.946 ± 0.034 | 0.482 ± 0.054 | 0.00547 ± 0.0011 | 0.0576 ± 0.0015 | 0.0794 ± 0.014 | 0.0885 ± 0.032 | 1.08 ± 0.022 | 1.08 ± 0.022 |
| CC(=O)Nc1cccc(-n2c(=O)n(C3CC3)c(=O)c3c(Nc4ccc(I)cc4F)n(C)c(=O)c(C)c32)c1 [Trametinib] | 1.07 ± 0.038 | 1.07 ± 0.014 | 1.04 ± 0.027 | 1.02 ± 0.057 | 0.876 ± 0.04 | 0.764 ± 0.029 | 0.719 ± 0.028 | 0.717 ± 0.05 | 0.731 ± 0.023 | 0.666 ± 0.01 | 0.641 ± 0.017 | – | – | – | – | – | – | – | – | – | – | – |
| Cc1cc(Nc2ncnc3ccc(NC4=NC(C)(C)CO4)cc23)ccc1Oc1ccn2ncnc2c1 [Tucatinib] | 1.06 ± 0.019 | 1.11 ± 0.022 | 1.09 ± 0.036 | 1.07 ± 0.031 | 1.075 ± 0.0081 | 1.09 ± 0.03 | 1.08 ± 0.025 | 1.07 ± 0.027 | 1.05 ± 0.054 | 1.01 ± 0.022 | 0.953 ± 0.051 | – | – | – | – | – | – | – | – | – | – | – |
| COc1cc2/c(=N/c3ccc(Br)cc3F)nc[nH]c2cc1OCC1CCN(C)CC1 [Vandetanib] | 1.03 ± 0.078 | 1.03 ± 0.048 | 1.02 ± 0.042 | 1.05 ± 0.048 | 1.05 ± 0.06 | 1.05 ± 0.045 | 0.99 ± 0.022 | 1.01 ± 0.026 | 0.908 ± 0.014 | 0.4145 ± 0.0025 | 0.0298 ± 0.0027 | – | – | – | – | – | – | – | – | – | – | – |
| CCCS(=O)(=O)Nc1ccc(F)c(C(=O)c2c[nH]c3ncc(-c4ccc(Cl)cc4)cc23)c1F [Vemurafenib] | 1.09 ± 0.063 | 1.07 ± 0.032 | 1.09 ± 0.049 | 1.08 ± 0.024 | 1.08 ± 0.026 | 1.07 ± 0.034 | 1.07 ± 0.033 | 1.07 ± 0.02 | 1.075 ± 0.0032 | 1.01 ± 0.02 | 0.708 ± 0.046 | – | – | – | – | – | – | – | – | – | – | – |
| C[C@@H](c1ccc2nccn2c1)n1nnc2ncc(-c3cnn(C)c3)nc21 [Volitinib] | 1.041 ± 0.0092 | 1.044 ± 0.0082 | 1.07 ± 0.036 | 1.07 ± 0.024 | 1.077 ± 0.006 | 1.101 ± 0.007 | 1.09 ± 0.013 | 1.078 ± 0.0062 | 1.083 ± 0.0058 | 1.049 ± 0.0046 | 1.05 ± 0.021 | – | – | – | – | – | – | – | – | – | – | – |
| C=CC(=O)N1CCC([C@@H]2CCNc3c(C(N)=O)c(-c4ccc(Oc5ccccc5)cc4)nn32)CC1 [Zanubrutinib] | 0.952 ± 0.026 | 0.946 ± 0.032 | 0.962 ± 0.02 | 0.9655 ± 0.007 | 0.936 ± 0.043 | 0.962 ± 0.021 | 0.957 ± 0.022 | 0.935 ± 0.037 | 0.901 ± 0.047 | 0.85 ± 0.065 | 0.839 ± 0.019 | – | – | – | – | – | – | – | – | – | – | – |

— the supplement of paper PMC10883282
